{"source": "patent US9314020B2", "about": "“Microbicidal composition” (Dow Global Technologies LLC, priority 2012, dated 2016)", "key": {"[1]": {"system": "Pseudomonas aeruginosa ATCC 10145, Aeromonas hydrophila ATCC 7965, and Myroides odoratus (Flavobacterium odoratum) NCIMB 13294", "test": "Efficacy against aerobic bacteria in synthetic cooling water (4 h kill, TSB/Resazurin readout)", "format": "cell-based", "details": "for Concentration (ppm a.i.) for complete bacterial kill in 4 hours: DBNPA: DBNPA alone or DBNPA part of DTEA/DBNPA blend; for Concentration (ppm a.i.) for complete bacterial kill in 4 hours: DBMAL: DBMAL alone or DBMAL part of DTEA/DBMAL blend", "experimental": "(§1) The synergism of the biocides combination of the present invention was determined using the method described by Kull, F. C, et. al. in Applied Microbiology 9:538-541 (1961).\n(§2) The formula to calculate the synergistic index (SI) is Qa/QA+Qb/QB=SI where\n(§3) QA=concentration of compound A in ppm, acting alone produced an end point or if end point could not be established, the highest concentration tested will be used as the end point for the calculation and the SI will be recorded in “less than or <” values\n(§4) Qa=concentration of compound A in ppm, in the mixture, which produced an end point\n(§5) QB=concentration of compound B in ppm, acting alone produced an end point or if end point could not be established, the highest concentration tested will be used as the end point for the calculation and the SI will be recorded in “less than or <” values\nSynthetic cooling water was generated as disclosed in Appendix A and dispensed into three 96-well plates. A stock solution of DBMAL from 12% liquid active (or DBNPA from a solid formulation as appropriate) and a stock solution of DTEA (in the hydrochloride form) derived from a liquid stock stored under anaerobic conditions were generated in the synthetic cooling water. In one 96-well biocide block, the stock solution of DBMAL (or DBNPA as listed) was added to the first row of the master block and diluted 1:1 by row until the testing range has been prepared. In a second 96-well biocide block, the stock solution of DTEA was added to the first column of the master block and diluted 1:1 by column until the testing range has been prepared. Biocides from each DBMAL row in the DBMAL biocide master block were added to the matching experimental row in a 3rd 96 well plate filled with synthetic cooling water. This was repeated, adding biocides from each DTEA column from the DTEA biocide master block to the matching experimental column Working quickly, the following organisms were added from a cell-suspension with an OD600 of ˜0.4 (approximately 1×10^8 cfu/ml) to final concentration of 1×10^7 cfu/ml in the first of the 96 well plates: Pseudomonas aeruginosa ATCC 10145, Aeromonas hydrophila ATCC 7965, and Myroides odoratus (Flavobacterium odoratum) NCIMB 13294. The resulting bacterial final concentration was 3×10^7 cfu/ml in the experimental 96 well block.\nThe experimental block was placed at 35° C., with the time of exposure started once the last well had been inoculated. At 4 hours, the experimental block was removed from the incubator, and 20 μl of treated cells from each row of the experimental block and were added to the first row of a 96-well plate pre-filled with TSB/Resazurin dye. Each sample from the first row of the TSB/Resazurin dye plate was diluted 1:10 six times by serial dilution moving down the plate by row. The inoculated TSB/Resazurin dye 96-well plate was placed at 35° C. for 24 hours, following that time data interpretation occurred. Color change from purple to pink indicates microbial metabolic activity and designates lack of cell death. Those wells were counted as “growth”. Failure to have color change from purple to pink indicates a lack of microbial metabolic activity and designates cell death. These were counted as “no growth”. […] The efficacy and synergy index of each combo were also included.\n(§6) In order to differentiate DBMAL/DTEA combinations from DTEA/DBNPA combinations, DTEA/DBNPA combinations were also tested using the same test procedures and conditions described above."}, "[2]": {"system": "Desulfovibrio longus ATCC 51456", "test": "Biocidal efficacy against anaerobic bacteria (2 h kill in deoxygenated salt solution)", "format": "cell-based", "experimental": "as §1, §2, §3, §4, §5\nInside an anaerobic chamber (BACTRON anaerobic chamber), a deoxygenated sterile salt solution (3.1183 g of NaCl, 1.3082 mg of NaHCO3, 47.70 mg of KCl, 72.00 mg of CaCl2, 54.49 mg of MgSO4, 172.28 mg of Na2SO4, 43.92 mg of Na2CO3 in 1 L water) was inoculated with Desulfovibrio longus ATCC 51456, a sulfate-reducing bacterium, to a final bacterial concentration of 10^7 to 10^8 CFU/mL. Aliquots of this cell suspension were then treated with DBMAL, DTEA (in the hydrochloride form), and DBMAL/DTEA blends, at selected active concentrations. After the treated cell suspensions were incubated at 35° C. for 2 hours, the biocidal efficacy was determined by minimum tested biocide concentration for 99.999% bacteria kill in the aliquots. Table 1 summarizes the efficacy of each biocide and their blends, and the Synergy Index (SI) of each combination.\nas §6"}}, "data": [{"molecule": "N#CC(Br)(Br)C(N)=O", "note": "[DBNPA alone]", "values": [{"measurement": "Concentration (ppm a.i.) for complete bacterial kill in 4 hours: DBNPA", "setting": "[1]; experiment 5", "result": 6.25, "unit": "ppm a.i."}, {"measurement": "Concentration (ppm a.i.) for complete bacterial kill in 4 hours: DBNPA", "setting": "[1]; experiment 6", "result": 6.25, "unit": "ppm a.i."}, {"measurement": "Concentration (ppm a.i.) for complete bacterial kill in 4 hours: DBNPA", "setting": "[1]; experiment 7", "result": 6.25, "unit": "ppm a.i."}, {"measurement": "Concentration (ppm a.i.) for more than 99.999% bacterial kill in 2 hours: DBNPA", "setting": "[2]; DBNPA alone or DBNPA part of DTEA/DBNPA blend, Table 6", "result": 25.00, "unit": "ppm a.i."}]}, {"molecule": "NC(=O)C(Br)(Br)C(N)=O", "note": "[DBMAL alone, 2,2-dibromomalonamide]", "values": [{"measurement": "Concentration (ppm a.i.) for complete bacterial kill in 4 hours: DBMAL", "setting": "[1]; experiment 1", "result": 25.00, "unit": "ppm a.i."}, {"measurement": "Concentration (ppm a.i.) for complete bacterial kill in 4 hours: DBMAL", "setting": "[1]; experiment 2", "result": 25.00, "unit": "ppm a.i."}, {"measurement": "Concentration (ppm a.i.) for complete bacterial kill in 4 hours: DBMAL", "setting": "[1]; experiment 3", "result": 25.00, "unit": "ppm a.i."}, {"measurement": "Concentration (ppm a.i.) for complete bacterial kill in 4 hours: DBMAL", "setting": "[1]; experiment 4", "result": 50.00, "unit": "ppm a.i."}, {"measurement": "Synergy Index", "setting": "[1]; DTEA/DBMAL blends, experiment 3", "result": 1.00}, {"measurement": "Concentration (ppm a.i.) for more than 99.999% bacterial kill in 2 hours: DBMAL", "setting": "[2]; DBMAL alone or DBMAL part of DTEA/DBMAL blend, 35° C., 2 hours, Table 1", "result": 100.00, "unit": "ppm a.i."}]}, {"molecule": "CCCCCCCCCCSCCN.Cl", "note": "[DTEA alone, 2-(decylthio)ethanamine hydrochloride]", "values": [{"measurement": "Concentration (ppm a.i.) for complete bacterial kill in 4 hours: DTEA", "setting": "[1]; DTEA alone or DTEA part of DTEA/DBMAL blend, experiment 1", "result": 12.50, "unit": "ppm a.i."}, {"measurement": "Concentration (ppm a.i.) for complete bacterial kill in 4 hours: DTEA", "setting": "[1]; DTEA alone or DTEA part of DTEA/DBMAL blend, experiment 2", "result": 25.00, "unit": "ppm a.i."}, {"measurement": "Concentration (ppm a.i.) for complete bacterial kill in 4 hours: DTEA", "setting": "[1]; DTEA alone or DTEA part of DTEA/DBMAL blend, experiment 3", "result": 25.00, "unit": "ppm a.i."}, {"measurement": "Concentration (ppm a.i.) for complete bacterial kill in 4 hours: DTEA", "setting": "[1]; DTEA alone or DTEA part of DTEA/DBMAL blend, experiment 4", "result": 100.00, "unit": "ppm a.i."}, {"measurement": "Concentration (ppm a.i.) for complete bacterial kill in 4 hours: DTEA", "setting": "[1]; DTEA alone or DTEA part of DTEA/DBNPA blend, experiment 5", "result": 50.00, "unit": "ppm a.i."}, {"measurement": "Concentration (ppm a.i.) for complete bacterial kill in 4 hours: DTEA", "setting": "[1]; DTEA alone or DTEA part of DTEA/DBNPA blend, experiment 6", "result": 100.00, "unit": "ppm a.i."}, {"measurement": "Concentration (ppm a.i.) for complete bacterial kill in 4 hours: DTEA", "setting": "[1]; DTEA alone or DTEA part of DTEA/DBNPA blend, experiment 7", "result": 50.00, "unit": "ppm a.i."}, {"measurement": "Concentration (ppm a.i.) for more than 99.999% bacterial kill in 2 hours: DTEA", "setting": "[2]; DTEA alone or DTEA part of DTEA/DBMAL blend, 35° C., 2 hours, Table 1", "result": 25.00, "unit": "ppm a.i."}, {"measurement": "Concentration (ppm a.i.) for more than 99.999% bacterial kill in 2 hours: DTEA", "setting": "[2]; DTEA alone or DTEA part of DTEA/DBNPA blend, Table 6", "result": 25.00, "unit": "ppm a.i."}]}]}
